Data as given in ChEMBL document CHEMBL1201862, “PubChem BioAssay data set” (2004).
Active and inactive are the calls of the source.

Legend:
Assay type in all cases: functional
[1] = target: Dual specificity protein kinase CLK2 (Homo sapiens, UniProt P49760)
[2] = target: Dual specificity mitogen-activated protein kinase kinase 1 (Homo sapiens, UniProt Q02750); assay: Navigating the Kinome. Panel member name: MAP2K1
[3] = target: Death-associated protein kinase 3 (Homo sapiens, UniProt O43293);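 note: measured as one member of a kinome-wide profiling panel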
[4] = target: Serine/threonine-protein kinase pim-1 (Homo sapiens, UniProt P11309)
Serine/threonine-protein kinase pim-1, sequence (P11309 whole entry): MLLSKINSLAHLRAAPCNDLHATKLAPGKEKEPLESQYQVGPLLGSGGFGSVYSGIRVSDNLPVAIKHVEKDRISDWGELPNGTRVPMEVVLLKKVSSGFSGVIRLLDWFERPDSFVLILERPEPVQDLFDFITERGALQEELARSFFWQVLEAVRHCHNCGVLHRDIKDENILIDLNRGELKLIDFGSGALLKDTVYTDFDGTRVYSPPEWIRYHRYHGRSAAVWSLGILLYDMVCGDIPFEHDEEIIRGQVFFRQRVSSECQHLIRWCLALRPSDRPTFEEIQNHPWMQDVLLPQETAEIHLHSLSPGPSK

[5] = target: Serine/threonine-protein kinase PAK 4 (Homo sapiens, UniProt O96013);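 note: value obtained within a kinome profiling panel in which PAK4 was one of the panel members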
[6] = target: Fibroblast growth factor receptor 1 (Homo sapiens, UniProt P11362)
[7] = target: Casein kinase I isoform alpha (Homo sapiens, UniProt P48729)
[8] = target: T1, Mitogen-activated protein kinase kinase kinase kinase 2 (Homo sapiens, UniProt Q12851);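 note: measured as one member of a kinome-wide kinase panel, with MAP4K2 as the panel entry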
T1 sequence (Q12851 whole entry): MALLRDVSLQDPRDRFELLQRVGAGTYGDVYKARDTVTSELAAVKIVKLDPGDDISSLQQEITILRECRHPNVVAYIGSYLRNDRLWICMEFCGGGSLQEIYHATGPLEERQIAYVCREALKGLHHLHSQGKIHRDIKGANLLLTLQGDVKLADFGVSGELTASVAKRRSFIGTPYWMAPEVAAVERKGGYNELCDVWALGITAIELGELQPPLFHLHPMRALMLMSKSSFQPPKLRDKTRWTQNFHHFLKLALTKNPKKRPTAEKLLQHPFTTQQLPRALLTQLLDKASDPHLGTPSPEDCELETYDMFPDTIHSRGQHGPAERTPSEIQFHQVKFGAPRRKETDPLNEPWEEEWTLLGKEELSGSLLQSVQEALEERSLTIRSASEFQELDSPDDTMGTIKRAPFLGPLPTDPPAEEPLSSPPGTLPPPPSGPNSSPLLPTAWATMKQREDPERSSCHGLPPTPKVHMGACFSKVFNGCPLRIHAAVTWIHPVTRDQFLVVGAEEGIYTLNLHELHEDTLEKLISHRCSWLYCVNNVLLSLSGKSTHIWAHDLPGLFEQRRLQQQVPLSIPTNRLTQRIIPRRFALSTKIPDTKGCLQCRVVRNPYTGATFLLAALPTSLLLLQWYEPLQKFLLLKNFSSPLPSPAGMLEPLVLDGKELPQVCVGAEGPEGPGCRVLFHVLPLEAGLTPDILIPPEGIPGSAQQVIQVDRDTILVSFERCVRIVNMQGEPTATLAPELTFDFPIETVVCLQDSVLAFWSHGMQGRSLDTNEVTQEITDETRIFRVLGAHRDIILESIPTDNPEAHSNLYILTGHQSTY

[9] = target: Vascular endothelial growth factor receptor 2 (Homo sapiens, UniProt P35968)
[10] = target: T2, cAMP-dependent protein kinase catalytic subunit PRKX (Homo sapiens, UniProt P51817)
T2 sequence (P51817 whole entry): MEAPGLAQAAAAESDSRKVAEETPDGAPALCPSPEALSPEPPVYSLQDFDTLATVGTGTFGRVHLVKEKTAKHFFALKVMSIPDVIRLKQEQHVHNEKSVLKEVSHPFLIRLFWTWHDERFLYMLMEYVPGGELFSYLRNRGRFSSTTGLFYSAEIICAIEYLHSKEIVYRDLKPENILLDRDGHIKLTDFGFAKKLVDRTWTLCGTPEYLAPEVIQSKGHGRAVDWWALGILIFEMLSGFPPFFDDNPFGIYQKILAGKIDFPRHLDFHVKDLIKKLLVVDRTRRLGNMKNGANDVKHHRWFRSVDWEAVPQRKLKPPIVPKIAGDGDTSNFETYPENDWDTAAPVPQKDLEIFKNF

Aurora kinase B = Aurora kinase B (Homo sapiens, UniProt Q96GD4)
[11] = target: Rho-associated protein kinase 1 (Homo sapiens, UniProt Q13464);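 note: measured within a broad kinome-wide panel profiling many kinases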
Rho-associated protein kinase 1, sequence (Q13464 whole entry): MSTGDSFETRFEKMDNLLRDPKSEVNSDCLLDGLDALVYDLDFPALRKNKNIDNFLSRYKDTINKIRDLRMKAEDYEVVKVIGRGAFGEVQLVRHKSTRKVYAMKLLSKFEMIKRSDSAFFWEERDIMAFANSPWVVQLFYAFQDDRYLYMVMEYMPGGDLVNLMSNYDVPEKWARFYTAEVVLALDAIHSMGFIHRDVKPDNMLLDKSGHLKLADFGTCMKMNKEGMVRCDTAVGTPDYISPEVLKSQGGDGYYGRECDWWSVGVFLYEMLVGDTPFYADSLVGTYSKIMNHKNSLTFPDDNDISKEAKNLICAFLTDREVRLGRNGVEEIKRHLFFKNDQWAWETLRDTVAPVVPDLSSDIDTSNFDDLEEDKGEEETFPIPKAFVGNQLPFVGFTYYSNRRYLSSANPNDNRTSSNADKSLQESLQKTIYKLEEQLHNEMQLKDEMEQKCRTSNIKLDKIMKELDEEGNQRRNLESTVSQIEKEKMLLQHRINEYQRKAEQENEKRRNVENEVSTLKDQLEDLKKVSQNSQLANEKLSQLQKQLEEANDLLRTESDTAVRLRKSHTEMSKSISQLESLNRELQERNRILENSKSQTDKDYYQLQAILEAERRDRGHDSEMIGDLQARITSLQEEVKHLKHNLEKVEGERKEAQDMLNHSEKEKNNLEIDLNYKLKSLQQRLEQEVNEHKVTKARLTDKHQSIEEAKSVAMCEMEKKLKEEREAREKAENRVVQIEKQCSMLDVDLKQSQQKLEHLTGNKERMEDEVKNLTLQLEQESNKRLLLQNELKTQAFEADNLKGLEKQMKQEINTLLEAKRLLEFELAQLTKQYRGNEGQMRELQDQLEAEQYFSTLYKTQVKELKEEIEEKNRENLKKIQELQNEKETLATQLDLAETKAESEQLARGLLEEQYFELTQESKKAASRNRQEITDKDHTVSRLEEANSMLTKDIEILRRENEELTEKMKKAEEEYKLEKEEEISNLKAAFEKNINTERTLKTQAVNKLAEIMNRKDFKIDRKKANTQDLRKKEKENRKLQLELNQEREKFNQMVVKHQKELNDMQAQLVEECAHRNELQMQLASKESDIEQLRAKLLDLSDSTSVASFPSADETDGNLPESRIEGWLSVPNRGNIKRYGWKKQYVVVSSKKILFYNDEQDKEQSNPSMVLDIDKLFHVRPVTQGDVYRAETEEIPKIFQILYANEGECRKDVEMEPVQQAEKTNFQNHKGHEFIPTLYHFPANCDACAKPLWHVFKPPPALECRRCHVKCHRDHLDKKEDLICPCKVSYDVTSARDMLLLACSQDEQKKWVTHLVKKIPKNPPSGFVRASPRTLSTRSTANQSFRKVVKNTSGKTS

[12] = target: Cyclin-dependent kinase 8 (Homo sapiens, UniProt P49336); assay: Navigating the Kinome. Panel member name: CDK8
[13] = target: Vascular endothelial growth factor receptor 1 (Homo sapiens, UniProt P17948);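 note: measured within a kinome-wide profiling panel, FLT1 as the panel member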
Vascular endothelial growth factor receptor 1, sequence (P17948 whole entry): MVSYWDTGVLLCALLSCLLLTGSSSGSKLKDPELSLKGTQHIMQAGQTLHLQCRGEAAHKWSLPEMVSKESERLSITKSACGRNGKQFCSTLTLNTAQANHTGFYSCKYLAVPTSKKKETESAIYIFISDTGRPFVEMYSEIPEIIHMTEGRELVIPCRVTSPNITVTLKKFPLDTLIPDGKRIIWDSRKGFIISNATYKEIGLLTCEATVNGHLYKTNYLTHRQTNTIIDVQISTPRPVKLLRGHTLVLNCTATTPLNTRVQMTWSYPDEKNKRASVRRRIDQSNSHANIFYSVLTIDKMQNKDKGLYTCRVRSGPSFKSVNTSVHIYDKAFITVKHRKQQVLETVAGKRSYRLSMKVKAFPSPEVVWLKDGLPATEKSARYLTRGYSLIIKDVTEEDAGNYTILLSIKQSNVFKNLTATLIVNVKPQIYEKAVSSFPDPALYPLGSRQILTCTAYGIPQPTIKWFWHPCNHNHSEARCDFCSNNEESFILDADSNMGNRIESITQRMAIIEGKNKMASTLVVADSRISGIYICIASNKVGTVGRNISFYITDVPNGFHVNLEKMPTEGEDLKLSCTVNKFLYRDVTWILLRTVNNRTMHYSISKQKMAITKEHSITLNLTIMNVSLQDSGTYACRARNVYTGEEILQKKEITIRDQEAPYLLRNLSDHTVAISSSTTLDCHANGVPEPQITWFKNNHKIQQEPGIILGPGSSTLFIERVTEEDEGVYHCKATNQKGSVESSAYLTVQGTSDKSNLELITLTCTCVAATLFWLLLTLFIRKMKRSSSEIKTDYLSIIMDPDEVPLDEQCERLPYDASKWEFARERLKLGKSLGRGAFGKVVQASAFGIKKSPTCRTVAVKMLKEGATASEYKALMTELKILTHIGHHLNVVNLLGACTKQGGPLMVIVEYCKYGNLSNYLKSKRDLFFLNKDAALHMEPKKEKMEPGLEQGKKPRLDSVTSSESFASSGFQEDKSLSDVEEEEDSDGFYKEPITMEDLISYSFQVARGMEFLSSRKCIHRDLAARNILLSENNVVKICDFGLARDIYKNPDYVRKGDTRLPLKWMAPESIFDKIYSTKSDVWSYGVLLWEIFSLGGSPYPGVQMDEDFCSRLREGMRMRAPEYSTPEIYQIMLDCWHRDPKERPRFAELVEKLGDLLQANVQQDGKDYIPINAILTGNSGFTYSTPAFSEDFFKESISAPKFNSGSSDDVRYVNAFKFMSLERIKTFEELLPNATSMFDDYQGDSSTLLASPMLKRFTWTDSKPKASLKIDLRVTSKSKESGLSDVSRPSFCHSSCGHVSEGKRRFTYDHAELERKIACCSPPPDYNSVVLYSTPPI

[14] = target: Cyclin-dependent kinase 9 (Homo sapiens, UniProt P50750);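 note: value from the CDK9 entry of a kinome-spanning kinase panel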
Cyclin-dependent kinase 9, sequence (P50750 whole entry): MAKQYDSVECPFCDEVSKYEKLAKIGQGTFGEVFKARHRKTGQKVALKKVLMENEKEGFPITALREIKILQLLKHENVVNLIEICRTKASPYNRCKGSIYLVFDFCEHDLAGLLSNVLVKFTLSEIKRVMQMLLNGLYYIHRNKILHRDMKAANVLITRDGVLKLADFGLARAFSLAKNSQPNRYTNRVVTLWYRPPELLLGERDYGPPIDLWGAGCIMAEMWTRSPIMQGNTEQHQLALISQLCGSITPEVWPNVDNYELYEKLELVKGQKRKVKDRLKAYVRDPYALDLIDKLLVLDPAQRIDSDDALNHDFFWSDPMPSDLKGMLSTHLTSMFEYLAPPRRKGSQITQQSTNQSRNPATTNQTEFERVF

[15] = target: Dual specificity protein kinase CLK4 (Homo sapiens, UniProt Q9HAZ1)
[16] = target: T3, Inhibitor of nuclear factor kappa-B kinase subunit epsilon (Homo sapiens, UniProt Q14164); assay: Navigating the Kinome. Panel member name: IKBKE
T3 sequence (Q14164 whole entry): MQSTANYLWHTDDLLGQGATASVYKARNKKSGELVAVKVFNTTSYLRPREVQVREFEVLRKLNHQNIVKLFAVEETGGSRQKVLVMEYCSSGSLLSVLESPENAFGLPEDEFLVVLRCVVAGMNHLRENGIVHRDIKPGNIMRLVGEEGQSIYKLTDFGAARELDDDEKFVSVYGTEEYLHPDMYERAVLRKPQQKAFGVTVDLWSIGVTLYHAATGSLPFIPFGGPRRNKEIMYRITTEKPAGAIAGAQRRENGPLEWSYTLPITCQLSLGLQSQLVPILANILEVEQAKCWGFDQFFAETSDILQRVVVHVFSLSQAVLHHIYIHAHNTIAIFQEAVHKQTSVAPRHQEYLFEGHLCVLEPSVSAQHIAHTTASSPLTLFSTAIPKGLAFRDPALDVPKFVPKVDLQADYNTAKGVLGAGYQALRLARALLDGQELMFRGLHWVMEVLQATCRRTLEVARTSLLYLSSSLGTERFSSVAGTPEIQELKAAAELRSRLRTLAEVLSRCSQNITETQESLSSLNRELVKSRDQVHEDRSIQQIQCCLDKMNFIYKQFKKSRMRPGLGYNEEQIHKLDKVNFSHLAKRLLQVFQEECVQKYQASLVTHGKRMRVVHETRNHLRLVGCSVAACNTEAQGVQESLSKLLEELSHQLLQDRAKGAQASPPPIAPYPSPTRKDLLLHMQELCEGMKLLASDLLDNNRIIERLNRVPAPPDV

[17] = target: Mitogen-activated protein kinase 9 (Homo sapiens, UniProt P45984);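 note: value from a kinome panel profiling assay, MAPK9 panel entry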
Mitogen-activated protein kinase 9, sequence (P45984 whole entry): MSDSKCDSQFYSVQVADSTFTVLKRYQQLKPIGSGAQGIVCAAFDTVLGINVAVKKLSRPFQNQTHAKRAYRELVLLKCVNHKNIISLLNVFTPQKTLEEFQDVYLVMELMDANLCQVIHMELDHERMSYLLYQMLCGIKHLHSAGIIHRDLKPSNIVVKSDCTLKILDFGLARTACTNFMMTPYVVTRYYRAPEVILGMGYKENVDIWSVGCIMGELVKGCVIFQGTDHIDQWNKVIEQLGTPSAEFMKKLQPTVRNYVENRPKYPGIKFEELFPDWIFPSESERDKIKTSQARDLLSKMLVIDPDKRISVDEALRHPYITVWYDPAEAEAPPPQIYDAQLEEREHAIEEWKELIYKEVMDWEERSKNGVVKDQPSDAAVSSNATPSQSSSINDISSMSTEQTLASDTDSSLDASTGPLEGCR

[18] = target: Calcium/calmodulin-dependent protein kinase type II subunit alpha (Homo sapiens, UniProt Q9UQM7); assay: Navigating the Kinome. Panel member name: CAMK2A
Calcium/calmodulin-dependent protein kinase type II subunit alpha, sequence (Q9UQM7 whole entry): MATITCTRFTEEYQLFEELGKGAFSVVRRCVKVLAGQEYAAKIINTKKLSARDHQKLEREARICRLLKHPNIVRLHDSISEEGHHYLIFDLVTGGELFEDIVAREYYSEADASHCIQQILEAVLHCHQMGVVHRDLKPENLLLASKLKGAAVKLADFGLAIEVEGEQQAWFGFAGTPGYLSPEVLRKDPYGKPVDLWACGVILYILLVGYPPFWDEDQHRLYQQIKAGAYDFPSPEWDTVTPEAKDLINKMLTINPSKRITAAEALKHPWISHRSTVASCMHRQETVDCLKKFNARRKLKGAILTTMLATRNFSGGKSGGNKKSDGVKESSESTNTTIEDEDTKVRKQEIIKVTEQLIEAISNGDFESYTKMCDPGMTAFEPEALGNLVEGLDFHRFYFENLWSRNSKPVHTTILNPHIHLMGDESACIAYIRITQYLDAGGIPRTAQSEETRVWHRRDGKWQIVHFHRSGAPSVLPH

[19] = target: Mitogen-activated protein kinase 14 (Homo sapiens, UniProt Q16539);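 note: part of a kinome-wide panel, MAPK14 entry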
Mitogen-activated protein kinase 14, sequence (Q16539 whole entry): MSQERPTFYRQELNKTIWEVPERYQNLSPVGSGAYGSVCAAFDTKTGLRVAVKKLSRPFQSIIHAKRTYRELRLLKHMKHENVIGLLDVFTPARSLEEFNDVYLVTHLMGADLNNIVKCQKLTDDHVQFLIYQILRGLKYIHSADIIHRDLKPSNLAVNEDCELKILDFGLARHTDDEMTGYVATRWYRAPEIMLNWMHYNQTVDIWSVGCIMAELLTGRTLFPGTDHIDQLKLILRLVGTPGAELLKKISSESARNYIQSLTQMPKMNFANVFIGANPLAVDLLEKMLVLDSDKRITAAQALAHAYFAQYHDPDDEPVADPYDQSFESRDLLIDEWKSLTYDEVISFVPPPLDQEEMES

Dual specificity mitogen-activated protein kinase kinase 1, sequence (Q02750 whole entry): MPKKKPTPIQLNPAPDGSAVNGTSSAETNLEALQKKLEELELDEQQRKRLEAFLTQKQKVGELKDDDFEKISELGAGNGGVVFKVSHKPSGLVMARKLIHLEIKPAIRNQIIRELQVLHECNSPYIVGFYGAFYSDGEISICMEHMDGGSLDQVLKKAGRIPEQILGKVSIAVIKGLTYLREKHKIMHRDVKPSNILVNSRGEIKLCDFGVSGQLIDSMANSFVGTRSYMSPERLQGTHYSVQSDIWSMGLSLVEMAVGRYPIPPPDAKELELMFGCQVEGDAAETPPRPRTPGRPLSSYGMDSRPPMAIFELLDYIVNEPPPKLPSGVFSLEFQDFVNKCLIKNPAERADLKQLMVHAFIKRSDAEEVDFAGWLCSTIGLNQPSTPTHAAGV

Compound | Ki [1] | Ki [2] | Ki [3] | Ki [4] | Ki [5] | Ki [6] | Ki [7] | Ki [8] | Ki [9] | Ki [10] | Ki (Aurora kinase B) | Ki [11] | Ki [12] | Ki [13] | Ki [14] | Ki [15] | Ki [16] | Ki [17] | Ki [18] | Ki [19]
O=c1[nH]c2cc(Br)cnc2[nH]1 | 25.1 µM (active) | 50.1 µM (active) | 12.6 µM (active) | 25.1 µM (active) | 39.8 µM (active) | 50.1 µM (active) | 6.31 µM (active) | 12.6 µM (active) | 20 µM (active) | 12.6 µM (active) | 5.01 µM (active) | 50.1 µM (active) | 7.94 µM (active) | 10 µM (active) | 12.6 µM (active) | 1.26 µM (active) | 39.8 µM (active) | – | – | –
O=C(Nc1cccc(C(F)(F)F)n1)Nc1ccnc2cc(OC(F)F)ccc12 | > 3.98 µM (inactive) | > 3.16 µM (inactive) | > 5.01 µM (inactive) | > 6.31 µM (inactive) | > 5.01 µM (inactive) | > 3.98 µM (inactive) | > 3.98 µM (inactive) | > 2.51 µM (inactive) | > 1.58 µM (inactive) | > 3.16 µM (inactive) | > 3.98 µM (inactive) | > 3.98 µM (inactive) | > 3.98 µM (inactive) | > 3.98 µM (inactive) | > 1.58 µM (inactive) | – | > 3.16 µM (inactive) | > 3.98 µM (inactive) | > 6.31 µM (inactive) | > 3.98 µM (inactive)
O=C(Nc1cccc(C(F)(F)F)n1)Nc1ccnc2cc(Cl)ccc12 | > 3.98 µM (inactive) | 3.16 µM (active) | > 5.01 µM (inactive) | > 5.01 µM (inactive) | > 5.01 µM (inactive) | > 3.98 µM (inactive) | > 3.98 µM (inactive) | > 2.51 µM (inactive) | > 2.51 µM (inactive) | > 3.16 µM (inactive) | > 3.98 µM (inactive) | > 3.98 µM (inactive) | > 3.98 µM (inactive) | > 3.98 µM (inactive) | > 1.58 µM (inactive) | 1.26 µM (active) | > 3.16 µM (inactive) | > 3.98 µM (inactive) | > 7.94 µM (inactive) | > 3.98 µM (inactive)
CCC1CC(NS(=O)(=O)C2CC2)CC1c1ncc2cnc3[nH]ccc3n12 (stereo not given) | > 3.98 µM (inactive) | > 3.16 µM (inactive) | 0.794 µM (active) | > 6.31 µM (inactive) | 2.51 µM (active) | 1.26 µM (active) | > 3.98 µM (inactive) | > 2.51 µM (inactive) | 1 µM (active) | > 1.26 µM (inactive) | – | 0.0316 µM (active) | > 3.16 µM (inactive) | > 3.98 µM (inactive) | > 1.58 µM (inactive) | > 1.58 µM (inactive) | > 3.16 µM (inactive) | > 3.98 µM (inactive) | 2.51 µM (active) | > 3.98 µM (inactive)
